Source: patent US12648948B2, “Methods and compositions for treating cancer” (UNITED STATES GOVERNMENT AS REPRESENTED BY THE DEPARTMENT …, priority 2017, dated 2026)

Key:
[1] = test system: U87EGFRwt and U87EGFRvIII cells; experiment: AlamarBlue cell viability assay, established GBM cell lines; assay type: cell-based, human; settings: established GBM cell lines expressing EGFRwt or EGFRvIII, erlotinib 10 μM
Protocol: Cell viability assay was conducted using AlamarBlue cell viability assay kit (ThermoFisher) following manufacturer's protocol. Cells were cultured in Corning 96-well black plates with clear bottom (5000 cells/well). Drugs were added to cells for 72 hour following detection using POLARstar Omega Microplate Reader (excitation at 544 nm and emission at 590 nm) (BMG LABTECH, Germany).

GAS6 promoter = experiment: ChIP assay, c-Jun on the GAS6 promoter; assay type: cell-based, human; settings: erlotinib 1 μM, 24 h; GBM9 and U87EGFRwt cells
Protocol: GBM9 and U87EGFRwt cells were cultured in 15 cm plate per reaction for assay. ChIP assays were carried out using ChIP chromatin immunoprecipitation kit (Millipore) following manufacturer's instructions. The ChIP-enriched DNA samples were quantified by PCR using Platinum Taq DNA polymerase (Invitrogen). Putative AP-1 binding sites on GAS6 promoter were predicted by Using TFBIND program. The following primer pairs covering AP-1 sites were used: 5′-[…]-3′ (SEQ ID NO:1) and 5′-[…]-3′ (SEQ ID NO:2).

Akt, STAT3 = experiment: Western blot, Akt and STAT3 activation in glioma cells; assay type: cell-based, human
Protocol: (§1) Western blot analysis was performed according to standard protocols.

Met = experiment: Western blot, Met activation in glioma cells; assay type: cell-based, human; settings: erlotinib; established cell lines and patient derived neurospheres
Protocol: as §1

GBM9 cells [2] = experiment: Cell proliferation by cell counting (trypan blue dye exclusion); assay type: cell-based, human; settings: 72 hours
Protocol: FIG. 15A GBM9 cells were plated in 6 well plated and treated with drugs as indicated. Cell proliferation was measured through cell counting using the trypan blue dye exclusion test. […] Erlotinib vs erlotinib+SP: P=0.0016, t=7.60, d.f.=4; Erlotinib vs erlotinib+U: P=0.0012, t=8.24, d.f.=4.

GBM = settings: human, in vivo; cited from earlier work
[3] = mouse, in vivo
TNF = TNF ELISA on GBM9 xenograft tumor extracts; assay type: in vivo, mice
Protocol: (§2) To detect the in vivo levels of TNF, 1×10^6 GBM9 cells were injected into the right flanks of nude mice. When the subcutaneous tumor reached a volume of around 200 mm^3, the mice were treated with erlotinib to monitor the upregulation of TNF protein. The animals were dosed consecutively for 1, 2, 7 or 14 days and then sacrificed. The animals without treatment were considered as control (0-day treatment). Tumor tissues were rinsed in PBS and protein was extracted to analyze the TNF levels using ELISA and also used for western blot. To detect the protein expression in mice brain tumor tissues upon drug treatment, the same procedure was performed in orthotopic models. Additionally, with orthotopic models, mice were divided into four groups (control gavage group, erlotinib group, thalidomide group and erlotinib plus thalidomide, n=3). After 48 hours treatment tumors were harvested and subjected to Western blot and immunostaining.

[4] = test system: JNK-Axl-ERK signaling axis; experiment: Signal transduction in intracranial GBM9 tumors (Western blot, IHC); assay type: in vivo, mice; settings: thalidomide given with erlotinib
Protocol: as §2
Tumors from nude mice brains were fixed in 10% formalin and embedded in paraffin. Paraffin-embedded sections were cut at five-micrometer thickness. Immunohistochemical staining was performed using the ABC streptavidin-biotin method with the Vectastain ABC kit (Vector Laboratories, Burlingame, CA, USA) according to the manufacturer's protocol. Briefly, after deparaffinization and rehydration, endogenous peroxidase activity was quenched by a 10 min incubation in 3% H2O2. For antigen retrieval, the tissue sections were boiled in 10 mM sodium citrate buffer (pH 6.0) for 20 minutes. Binding of primary anti-pERK (1:100, Cell Signaling Technology, 4376) or anti-pJNK antibody (1:200, Cell signaling Technology, 4668) or anti-pAXL(1:400, R&D, AF2228) was carried out overnight at 4° C. The signal was detected by using the Sigmafast 3,3′-Diaminobenzidine tablets (DAB; Sigma, St. Louis MO). The sections were counterstained lightly with hematoxylin. The IHC staining intensity was scored semiquantitatively as: 0=No positive staining; 1=1-25% tumor cells stained, 2=26%-75% tumor cells stained and 3=>75% tumor cells stained.

Axl = experiment: Western blot, Axl activation (pAxl) in glioma cells; settings: erlotinib 48 h; patient derived GBM neurospheres and all cell lines examined
Protocol: Western blot analysis was performed according to standard protocols. In all experiments, before the addition of EGF or erlotinib established cells were cultured overnight in serum free DMEM and primary GBM neurospheres were EGF starved overnight. Cells not treated with EGF or erlotinib were also serum or EGF starved. EGFR (06-847, 1 μg/ml) antibody was from Millipore. pEGFR-1068 (2236), pERK (4376) ERK (4695), p34 (9251), JNK (9252), STAT3(9139), pAkt (0915) and pSTAT3 (9131) antibodies were from Cell Signaling Technology (Danvers, MA) were used a 1/1000 dilution; TNFR1 (sc-8436), ERK2 (sc-154). Akt (sc-1619), and β-Actin (sc-47778) were from Santa Cruz Biotechnology (Dallas, TX) were used at a concentration of 1 μg/ml. GAS6 (AF885), pAxl (AF2228) and Axl (AF154) were from R&D Biosystems (Minneapolis, MN) were used at a concentration of 1 μg/ml c-JUN antibody (ab31419) was from Abcam (Cambridge, MA) and was used at 2 μg per chromatin IP reaction.

GBM9 cells [5] = experiment: Annexin-FACS assay and Caspase 3/7 activation; assay type: cell-based, human; settings: Annexin V flow cytometry and Caspase 3/7 activation
Protocol: Annexin assay was performed by using Annexin—V-FLUOS Staining kit (Roche applied Science). Cells (1×10^6) were plated in 6 well plates and treated with drugs or vehicle alone. After 72 hours cells were trypsinized and washed 2 times with 1×PBS. The cells were incubated for 15 minutes at room temperature with Propidium Iodide and Annexin—V-FLUOS labeling solution in incubation buffer. Annexin and/or PI positive cells were detected by Flow Cytometry.
Caspase activity in the supernatant was measured using the Caspase-Glo 3/7 Assay (Promega, G8091) following manufacturer's instructions. Briefly, 72 hours after treatments, cells were washed by cold PBS and total cell lysates were prepared. 50 μg of total protein per sample was added per well of a 96 well plate and was incubated with 100 μl Caspase 3/7 reagent for 30 minutes. The luminescence of each sample was measured using a luminometer. All experiments included at least 3 replicates per group and were repeated 3 times.

JNK, Axl and ERK = experiment: Signal transduction in subcutaneous GBM9 tumors; assay type: in vivo, mice
Protocol: as §2

[6] = Toxicity and body weight of treated tumor-bearing mice; settings: in combination with thalidomide or SP600125, total of 10 days
GBM9 subcutaneous tumors = experiment: Subcutaneous GBM9 xenograft tumor growth; assay type: in vivo, athymic nude mice; settings: erlotinib 50 mg/kg oral gavage, SP600125 40 mg/kg i.p., thalidomide 150 mg/kg i.p., daily for 10 days
Protocol: 4 to 6 weeks old female athymic nude mice were purchased from Charles River Laboratories. The mice were housed in plastic cages (4-5 mice per cage) in a room with a 12 hour day-night cycle. 1×10^6 GBM9 cells were subcutaneously injected into the right flank of each nude mouse. […] The mice were randomly divided into control and treatment groups, mice were treated with drugs using the indicated doses. For combination treatment, both drugs were given concurrently for indicated periods. Tumor dimensions were measured by caliper every two days and tumor volumes calculated by the formula: volume=length×width×width/2. Mice were sacrificed when tumors reached over […] or 24 days from the first day of treatment.

C#Cc1cccc(Nc2ncnc3cc(OCCOC)c(OCCOC)cc23)c1 [erlotinib]
Cell viability, erlotinib alone [1]: completely resistant | Binding of c-Jun to the GAS6 promoter (GAS6 promoter): binding of cJun to the GAS6 promoter | Akt or STAT3 activation (Akt, STAT3; GBM9 neurospheres, erlotinib 1 μM): did not detect an increase in Akt or STAT3 activation | STAT3 and Akt activation at higher concentration (Akt, STAT3; glioma cells, erlotinib 10 μM or afatinib 10 μM): STAT3 and Akt activation are suppressed | Met activation (Met): induces activation of Met in established cell lines, but only in one patient derived neurosphere 987 | Cell growth / cell numbers, combination with erlotinib (GBM9 cells [2]): significant decreases in cell numbers | Clinical efficacy in GBM patients (GBM): also not effective | Body weight of orthotopic models [3]: Body weight losses | TNF level in subcutaneous mouse tumors (TNF; GBM9 flank tumors, erlotinib 50 mg/kg): increase in TNF can be detected 1 day after administration of erlotinib | Time to upregulation of TNF in GBM xenograft tumors (TNF; erlotinib): about 24 hours | JNK-Axl-ERK signaling axis in intracranial tumors (Western blot) ([4]; erlotinib 50 mg/kg): Activation of the JNK-Axl-ERK signaling axis can be detected in intracranial tumors | pAxl, pJNK and pERK immunostaining of brain sections ([4]; orthotopic model): higher expression of pAxl, pJNK and pERK compared to vehicle group | Axl phosphorylation (Axl): phosphorylation of the RTK Axl | Mode of cell death, erlotinib combined with Axl, JNK, ERK or TNF inhibition (GBM9 cells [5]): apoptotic cell death | Time at which JNK-ERK-Axl activation subsides in GBM xenograft tumors (JNK, Axl and ERK; erlotinib): about 2 weeks | Erlotinib induced activation of JNK, Axl and ERK in mouse tumors (JNK, Axl and ERK; subcutaneous GBM9 tumors, erlotinib 50 mg/kg): peaking around 2-7 days and subsiding by 14 days | Short term toxicity [6]: without significant immediate short term toxicity | Growth of subcutaneous tumors (GBM9 subcutaneous tumors): no significant effect on the growth of tumors
